Source: ChEMBL document CHEMBL1149597, “Structure-activity relationships of semisynthetic mumbaistatin analogs” (Bioorg Med Chem, 2007)
Calls of active or inactive are those of the source. No cut-off for these calls is given here.

tested on: Hepatocyte; test: Inhibition of glucagon-stimulated glucose production in rat hepatocytes at 280 uM; assay type: functional

| SMILES | inhibition at 280 µM [%] |
| --- | --- |
| COc1cc2c(c(/C=C/c3cccc4ccccc34)c1C(=O)O)C(=O)c1c(O)cccc1C2=O | 40 |

target: T1, Glucose-6-phosphate exchanger SLC37A4 (Homo sapiens, UniProt O43826); test: (§1) Inhibition of glucose 6 phosphate translocase 1
T1 sequence (O43826 whole entry): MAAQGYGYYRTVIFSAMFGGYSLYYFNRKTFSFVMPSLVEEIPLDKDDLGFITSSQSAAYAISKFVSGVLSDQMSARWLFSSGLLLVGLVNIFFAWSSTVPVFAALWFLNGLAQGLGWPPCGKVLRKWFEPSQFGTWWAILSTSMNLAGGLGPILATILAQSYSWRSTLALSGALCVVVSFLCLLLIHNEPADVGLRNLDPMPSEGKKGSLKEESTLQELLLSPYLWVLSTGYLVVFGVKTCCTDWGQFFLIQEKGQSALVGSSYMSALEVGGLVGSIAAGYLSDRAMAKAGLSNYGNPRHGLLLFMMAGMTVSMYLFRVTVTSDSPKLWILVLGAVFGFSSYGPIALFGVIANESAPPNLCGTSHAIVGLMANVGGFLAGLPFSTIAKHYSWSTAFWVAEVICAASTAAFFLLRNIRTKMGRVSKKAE

| IC50 [µM] | SMILES |
| --- | --- |
| 100 | CCCCc1c(C(=O)O)c(O)cc2c1C(=O)c1c(O)cccc1C2=O |
| 50 | CCCCCC/C=C/c1c(C(=O)O)c(OC)cc2c1C(=O)c1c(O)cccc1C2=O |
| 0.005 | O=C(O)CC(O)CCC(=O)c1cccc(O)c1C(=O)c1c(C(=O)O)c(O)cc2c1C(=O)c1c(O)cccc1C2=O (centres undefined) [MUMBAISTATIN] |
| 50 | C=C(c1cccc(O)c1C(=O)O)c1c(O)cccc1C(CCCCC)OC (centres undefined) |
| 5 | O=C1c2cccc(O)c2C(=O)c2c1cc(O)c1c2CC(c2cccc3ccccc23)OC1=O (centres undefined) |
| 200 | CCC(C)CCc1c(C(=O)O)c(O)cc2c1C(=O)c1c(O)cccc1C2=O (centres undefined) |
| 50 | COc1cc2c(c(CSc3ccccc3)c1C(=O)O)C(=O)c1c(O)cccc1C2=O |
| 20 | C=CCCOc1ccccc1/C=C/c1c(C(=O)O)c(OC)cc2c1C(=O)c1c(OC)cccc1C2=O |
| 20 | COc1cc2c(c(Cc3ccccc3)c1C(=O)O)C(=O)c1c(O)cccc1C2=O |
| 12.5 | CC/C=C/c1c(C(=O)O)c(OC)cc2c1C(=O)c1c(O)cccc1C2=O |
| 2.5 | COc1cc2c(c(/C=C/c3ccccc3)c1C(=O)O)C(=O)c1c(O)cccc1C2=O |
| 2.5 | COc1cc2c(c(/C=C/c3cccc4ccccc34)c1C(=O)O)C(=O)c1c(O)cccc1C2=O |

target: T2, Glucose-6-phosphate exchanger SLC37A4 (Homo sapiens) (UniProt O43826); test: as §1
T2 sequence (whole entry): T1 sequence (O43826 whole entry)

| Activity | SMILES |
| --- | --- |
| inactive | Cc1c(C(=O)O)c(O)cc2c1C(=O)c1c(O)cccc1C2=O |
